Reference: ChEMBL document CHEMBL1909046, “DrugMatrix in vitro pharmacology data”
pIC50, pKi: −log10 of the molar value.

Key:
[1] = target: 5-hydroxytryptamine receptor 4 (Cavia porcellus, UniProt O70528); format: cell membranes, Dunkin-Hartley, Striatum, Membrane; further: in other assays of this panel Not Active means under 50% inhibition at 10 µM
[2] = target: T1, C-X-C chemokine receptor type 2 (Homo sapiens, UniProt P25025); format: cell membranes, Membrane; conditions: cho-k1; further: in other assays of this panel Not Active means under 50% inhibition at 10 µM
T1 sequence (P25025 whole entry): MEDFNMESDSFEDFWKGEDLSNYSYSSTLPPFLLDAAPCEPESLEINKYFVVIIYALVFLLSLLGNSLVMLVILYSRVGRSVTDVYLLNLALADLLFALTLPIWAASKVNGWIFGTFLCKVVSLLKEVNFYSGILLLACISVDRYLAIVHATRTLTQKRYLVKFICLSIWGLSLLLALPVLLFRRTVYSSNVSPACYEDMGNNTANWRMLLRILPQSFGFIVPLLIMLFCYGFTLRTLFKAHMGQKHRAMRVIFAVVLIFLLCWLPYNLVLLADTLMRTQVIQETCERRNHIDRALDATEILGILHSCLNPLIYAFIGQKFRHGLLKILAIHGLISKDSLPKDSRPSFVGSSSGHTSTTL

[3] = target: Insulin receptor (Rattus norvegicus, UniProt P15127); format: cell membranes, Wistar, Liver, Membrane; further: in other assays of this panel Not Active means under 50% inhibition at 10 µM
[4] = DRUGMATRIX: Phorbol Ester radioligand binding (ligand: [3H] PDBu); format: cell membranes, Mus musculus, ICR, Brain, Membrane; conditions: Not Active = under 50% inhibition at 10 µM
[5] = target: Mitogen-activated protein kinase 14 (Homo sapiens, UniProt Q16539); design: species or system Escherichia coli;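 further: inhibition of p38alpha enzyme activity in a biochemical kinase assay, with myelin basic protein serving as substrate; in other assays of this panel Not Active means under 50% inhibition at 10 µM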
[6] = target: Adenosine receptor A2a (Homo sapiens, UniProt P29274); test: DRUGMATRIX: Adenosine A2A radioligand binding (ligand: […]); format: cell membranes, HEK293, Membrane; conditions: Not Active = under 50% inhibition at 10 µM
[7] = target: Cytochrome P450 2D6 (Homo sapiens, UniProt P10635); conditions: bti-tn-5b1-4; further: in other assays of this panel Not Active means under 50% inhibition at 10 µM
Cytochrome P450 2D6, sequence (P10635 whole entry): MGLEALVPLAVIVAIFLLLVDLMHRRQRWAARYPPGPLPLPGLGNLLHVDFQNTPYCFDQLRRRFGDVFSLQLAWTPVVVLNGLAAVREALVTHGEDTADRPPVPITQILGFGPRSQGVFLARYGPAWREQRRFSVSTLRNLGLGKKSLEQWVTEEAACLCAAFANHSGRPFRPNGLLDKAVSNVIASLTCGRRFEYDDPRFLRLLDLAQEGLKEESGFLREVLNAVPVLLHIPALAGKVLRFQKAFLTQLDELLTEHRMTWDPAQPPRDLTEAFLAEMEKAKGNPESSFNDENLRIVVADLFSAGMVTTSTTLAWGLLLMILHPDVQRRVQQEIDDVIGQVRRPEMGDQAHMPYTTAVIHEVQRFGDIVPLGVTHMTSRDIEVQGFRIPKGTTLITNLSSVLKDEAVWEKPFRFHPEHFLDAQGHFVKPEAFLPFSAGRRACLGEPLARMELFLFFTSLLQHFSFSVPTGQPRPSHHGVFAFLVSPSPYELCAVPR

5-hydroxytryptamine receptor 4, sequence (O70528 whole entry): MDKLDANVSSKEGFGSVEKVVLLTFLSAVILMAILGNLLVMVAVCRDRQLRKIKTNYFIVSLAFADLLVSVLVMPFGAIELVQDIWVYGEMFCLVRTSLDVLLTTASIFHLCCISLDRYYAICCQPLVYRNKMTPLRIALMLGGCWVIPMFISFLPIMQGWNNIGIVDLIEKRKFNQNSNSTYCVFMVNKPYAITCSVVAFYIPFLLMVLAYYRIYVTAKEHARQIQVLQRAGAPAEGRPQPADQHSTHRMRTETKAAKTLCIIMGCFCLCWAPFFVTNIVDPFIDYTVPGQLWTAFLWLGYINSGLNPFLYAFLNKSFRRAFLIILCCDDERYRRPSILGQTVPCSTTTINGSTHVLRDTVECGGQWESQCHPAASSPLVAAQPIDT
Adenosine receptor A2a, sequence (P29274 whole entry): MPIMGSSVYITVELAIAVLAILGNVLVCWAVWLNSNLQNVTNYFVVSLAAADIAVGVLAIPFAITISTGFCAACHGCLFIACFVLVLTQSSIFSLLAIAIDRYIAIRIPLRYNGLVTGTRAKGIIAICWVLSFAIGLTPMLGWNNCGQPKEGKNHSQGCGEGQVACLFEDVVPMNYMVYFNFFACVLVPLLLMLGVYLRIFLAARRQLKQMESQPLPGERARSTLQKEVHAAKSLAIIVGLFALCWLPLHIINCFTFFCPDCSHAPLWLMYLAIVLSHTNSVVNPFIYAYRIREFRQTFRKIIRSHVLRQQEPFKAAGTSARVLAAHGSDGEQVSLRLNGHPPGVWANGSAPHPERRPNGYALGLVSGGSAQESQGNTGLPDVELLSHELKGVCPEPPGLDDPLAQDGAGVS
Insulin receptor, sequence (P15127 27-759 limits assumed): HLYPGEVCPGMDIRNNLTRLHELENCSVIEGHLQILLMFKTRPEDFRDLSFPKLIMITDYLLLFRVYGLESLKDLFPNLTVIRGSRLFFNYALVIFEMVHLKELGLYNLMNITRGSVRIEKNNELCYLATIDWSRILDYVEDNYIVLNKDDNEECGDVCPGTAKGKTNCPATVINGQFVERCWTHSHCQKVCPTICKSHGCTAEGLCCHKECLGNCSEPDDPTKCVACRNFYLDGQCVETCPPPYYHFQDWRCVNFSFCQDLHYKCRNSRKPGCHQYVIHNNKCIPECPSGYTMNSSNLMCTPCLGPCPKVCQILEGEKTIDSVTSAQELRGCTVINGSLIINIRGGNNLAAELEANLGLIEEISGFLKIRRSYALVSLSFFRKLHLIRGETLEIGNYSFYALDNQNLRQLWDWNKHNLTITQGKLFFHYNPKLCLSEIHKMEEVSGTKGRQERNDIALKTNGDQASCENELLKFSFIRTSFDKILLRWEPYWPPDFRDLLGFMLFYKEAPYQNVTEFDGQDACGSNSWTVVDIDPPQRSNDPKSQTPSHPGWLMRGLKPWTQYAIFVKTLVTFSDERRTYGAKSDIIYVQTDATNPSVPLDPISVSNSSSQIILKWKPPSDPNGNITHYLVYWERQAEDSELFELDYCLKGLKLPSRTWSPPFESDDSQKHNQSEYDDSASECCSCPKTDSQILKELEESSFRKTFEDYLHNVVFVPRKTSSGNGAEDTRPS
Insulin receptor, sequence (P15127 764-1383 limits assumed): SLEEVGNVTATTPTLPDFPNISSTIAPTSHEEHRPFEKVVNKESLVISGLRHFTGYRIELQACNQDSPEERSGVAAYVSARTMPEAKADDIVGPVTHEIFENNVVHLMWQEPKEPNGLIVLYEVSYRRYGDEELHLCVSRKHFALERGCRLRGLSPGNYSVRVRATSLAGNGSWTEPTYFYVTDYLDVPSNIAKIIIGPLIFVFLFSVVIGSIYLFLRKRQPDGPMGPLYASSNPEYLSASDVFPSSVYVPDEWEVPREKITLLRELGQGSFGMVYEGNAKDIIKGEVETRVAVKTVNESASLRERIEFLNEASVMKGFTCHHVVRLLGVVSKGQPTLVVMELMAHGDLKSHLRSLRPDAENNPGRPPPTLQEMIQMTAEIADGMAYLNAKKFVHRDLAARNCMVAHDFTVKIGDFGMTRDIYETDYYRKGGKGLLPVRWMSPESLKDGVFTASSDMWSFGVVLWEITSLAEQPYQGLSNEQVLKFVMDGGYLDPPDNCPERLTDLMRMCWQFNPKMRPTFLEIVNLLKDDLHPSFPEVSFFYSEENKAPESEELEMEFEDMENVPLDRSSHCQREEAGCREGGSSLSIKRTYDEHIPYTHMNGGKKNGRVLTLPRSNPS
Mitogen-activated protein kinase 14, sequence (Q16539 whole entry): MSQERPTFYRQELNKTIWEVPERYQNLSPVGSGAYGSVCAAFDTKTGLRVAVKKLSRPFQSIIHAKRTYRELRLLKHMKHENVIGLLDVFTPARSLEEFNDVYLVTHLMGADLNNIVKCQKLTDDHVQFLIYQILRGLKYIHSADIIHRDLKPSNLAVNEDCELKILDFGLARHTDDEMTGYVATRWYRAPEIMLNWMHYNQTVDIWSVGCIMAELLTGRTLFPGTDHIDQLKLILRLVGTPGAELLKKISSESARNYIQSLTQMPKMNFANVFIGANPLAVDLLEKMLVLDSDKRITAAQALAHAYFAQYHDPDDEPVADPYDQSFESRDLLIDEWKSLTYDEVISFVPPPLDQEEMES

Molecule	IC50 [1]	IC50 [2]	IC50 [3]	IC50 [4]	Ki [4]	IC50 [5]	IC50 ([6]; hek293)	IC50 [7]	Ki [7]	pIC50 ([6]; read-out: IC50)	pKi ([6]; read-out: Ki)	Ki [1]	Ki [2]	Ki [3]	Ki [5]	Ki ([6]; hek293)
Cc1nccn1CC1CCc2c(c3ccccc3n2C)C1=O (stereo unspecified) [ONDANSETRON]	Not Active	Not Active	Not Active	Not Active	Not Active	Not Active	Not Active	Not Active	Not Active	–	–	–	–	–	–	–
CCCCOc1ccc(OCCCN2CCOCC2)cc1 [PRAMOXINE]	Not Active	Not Active	Not Active	Not Active	Not Active	Not Active	Not Active	Not Active	Not Active	–	–	–	–	–	–	–
O=C(C1CCCCC1)N1CC(=O)N2CCc3ccccc3C2C1 (stereo unspecified) [PRAZIQUANTEL]	Not Active	Not Active	Not Active	Not Active	Not Active	Not Active	Not Active	Not Active	Not Active	–	–	–	–	–	–	–
CCN(CC)CCOC(=O)c1ccc(N)cc1 [PROCAINE]	Not Active	Not Active	Not Active	Not Active	Not Active	Not Active	Not Active	Not Active	Not Active	–	–	–	–	–	–	–
CCCN(CCC)C(=O)C(CCC(=O)O)NC(=O)c1ccccc1 (stereo unspecified) [PROGLUMIDE]	Not Active	Not Active	Not Active	Not Active	Not Active	Not Active	Not Active	Not Active	Not Active	–	–	–	–	–	–	–
NC(=O)c1cnccn1 [PYRAZINAMIDE]	Not Active	Not Active	Not Active	Not Active	Not Active	Not Active	Not Active	Not Active	Not Active	–	–	–	–	–	–	–
Cc1cc2cc3c(C)cc(=O)oc3c(C)c2o1 [TRIOXSALEN]	Not Active	Not Active	Not Active	Not Active	Not Active	Not Active	–	Not Active	Not Active	5.88	6.13	–	–	–	–	–
CCCC(CCC)C(=O)O [VALPROIC ACID]	Not Active	Not Active	Not Active	Not Active	Not Active	Not Active	Not Active	Not Active	Not Active	–	–	–	–	–	–	–
CCC1=C[C@@H]2CN(C1)Cc1c([nH]c3ccccc13)[C@@](C(=O)OC)(c1cc3c(cc1OC)N(C)[C@H]1[C@@](O)(C(=O)OC)[C@H](OC(C)=O)[C@]4(CC)C=CCN5CC[C@]31[C@@H]54)C2 [VINORELBINE]	Not Active	Not Active	Not Active	Not Active	Not Active	Not Active	Not Active	Not Active	Not Active	–	–	–	–	–	–	–
CADMIUM DICHLORIDE	Not Active	Not Active	Not Active	Not Active	Not Active	Not Active	Not Active	Not Active	Not Active	–	–	Not Active	Not Active	Not Active	Not Active	Not Active
